Assay results reported in patent USRE50189E1, “Long term treatment of HIV-infection with TMC278” (Janssen Sciences Ireland Unlimited Company, priority 2006, dated 2024).

Experiments:
[1] = tested on: wild type HIV and mutated variants; conditions: cited from earlier work
[2] = plasma kinetics of TMC278 in the beagle dog after single intramuscular administration of aqueous 30% DMA/50% PEG400 solution; assay type: in vivo; conditions: single IM 2.5 mg/kg
Method: The study was performed in order to study the plasma kinetics and the absolute bioavailability of TMC278 in the beagle dog after single intramuscular administration (IM) of an aqueous 30% dimethylacetamide (DMA)/50% polyethylene glycol 400 (PEG400) solution of TMC278 at 2.5 mg/kg. The dogs were dosed IM.
Two male beagle dogs (dog No. 16924 and 16854), approximately 3 years old and weighing between 11 and 12 kg at the start of the experimental phase, were used in the present experiment. The dogs were dosed intramuscularly at 0.1 ml/kg body weight by injecting the formulation in the left (dog No. 16924) or right (dog No. 16854) m. biceps femoris. […]
Blood samples (4 ml on EDTA) were taken from a jugular vein from the dogs at 0 (=predose), 0.5, 1, 2, 4, 8, 24, 32, 48, 72, 96, 144, 192, 240 and 312 h after dose administration. […] These samples were analogously processed and analysed.
On day 232 post-dose, a biopsy was performed (dog No. 16924 only) on the iliac lymph node (at the side of injection), on a muscle from the non-injected hind leg and on a muscle at the side of injection after ultrasonographic examination. […] This sample was processed and analysed similarly to the other blood samples.
The concentration of TMC278 in dog plasma was determined by a qualified research LC-MS/MS method after solid phase extraction (SPE). […]

For Cc1cc(C=CC#N)cc(C)c1Nc1ccnc(Nc2ccc(C#N)cc2)n1 [TMC278, 4-[[4-[[4-(2-cyanoethenyl)-2,6-dimethylphenyl]amino]-2-pyrimidinyl]amino]benzonitrile], the “activity against wild type HIV and many of its mutated variants” value [1] is listed as “pronounced activity”, the “t1/2,24-72h” value ([2]; mean (n=2)) is listed as 63.1 h and the “course of plasma levels after 72 h post-dose” value ([2]; 72 h up to 312 h post-dose) is listed as “remained fairly constant or slightly increased”.
